Experimental data as given in the NIST ThermoML archive (doi:10.1016/j.jct.2018.02.022).
Numbers after ± are expanded uncertainties.

Key:
[1] = 92.3 kPa, Liquid; for viscosity: Concentric cylinders viscometry; for mass density: Vibrating tube method; for speed of sound: Frequency=3 MHz, Single path-length method
[2] = xn = mol fraction of the nth substance listed; details: 92.3 kPa, Liquid, x2 = 0; for viscosity: Concentric cylinders viscometry; for mass density: Vibrating tube method

viscosity ([1]; 293.15 K) | mass density ([1]; 293.15 K) | viscosity ([1]; 298.15 K) | mass density ([1]; 298.15 K) | viscosity ([1]; 303.15 K) | mass density ([1]; 303.15 K) | viscosity ([1]; 308.15 K) | mass density ([1]; 308.15 K) | speed of sound ([1]; 293.15 K) | speed of sound ([1]; 298.15 K) | speed of sound ([1]; 303.15 K) | speed of sound ([1]; 308.15 K) | Structure (SMILES) | viscosity ([2]; 293.15 K) | mass density ([2]; 293.15 K) | viscosity ([2]; 298.15 K) | mass density ([2]; 298.15 K) | viscosity ([2]; 303.15 K) | mass density ([2]; 303.15 K) | viscosity ([2]; 308.15 K) | mass density ([2]; 308.15 K)
 |  |  |  |  |  |  |  |  |  |  |  | O [water] + CCO | 1.067 ± 0.15 mPa·s | 998.429 ± 3 kg/m3 | 0.8969 ± 0.13 mPa·s | 997.267 ± 3 kg/m3 | 0.8385 ± 0.12 mPa·s | 995.867 ± 3 kg/m3 | 0.7589 ± 0.11 mPa·s | 994.252 ± 3 kg/m3
1408.4 ± 210 mPa·s | 1260.73 ± 3 kg/m3 | 900.44 ± 130 mPa·s | 1257.65 ± 3 kg/m3 | 593.09 ± 85 mPa·s | 1254.48 ± 3 kg/m3 | 401.76 ± 57 mPa·s | 1251.38 ± 3 kg/m3 | 1925.5 ± 1.8 m/s | 1911.9 ± 1.8 m/s | 1899.6 ± 1.8 m/s | 1888.1 ± 1.8 m/s | OCC(O)CO [glycerol] |  |  |  |  |  |  |  | 
48.06 ± 6.7 mPa·s | 1123.48 ± 3 kg/m3 | 36.88 ± 5.2 mPa·s | 1119.59 ± 3 kg/m3 | 29.59 ± 4.1 mPa·s | 1115.7 ± 3 kg/m3 | 23.72 ± 3.3 mPa·s | 1111.81 ± 3 kg/m3 | 1626.8 ± 2 m/s | 1611.6 ± 2 m/s | 1596.6 ± 2 m/s | 1581.7 ± 2 m/s | OCCOCCOCCO [triethylene glycol] |  |  |  |  |  |  |  | 
 |  |  |  |  |  |  |  |  |  |  |  | O [water] + OCC(O)CO | 1.067 ± 0.15 mPa·s | 998.429 ± 3 kg/m3 | 0.8969 ± 0.13 mPa·s | 997.267 ± 3 kg/m3 | 0.8385 ± 0.12 mPa·s | 995.867 ± 3 kg/m3 | 0.7589 ± 0.11 mPa·s | 994.252 ± 3 kg/m3
1.202 ± 0.17 mPa·s | 789.547 ± 3 kg/m3 | 1.091 ± 0.15 mPa·s | 785.26 ± 3 kg/m3 | 0.992 ± 0.14 mPa·s | 780.941 ± 3 kg/m3 | 0.9039 ± 0.13 mPa·s | 776.592 ± 3 kg/m3 | 1160.7 ± 1.8 m/s | 1143.5 ± 1.8 m/s | 1126.4 ± 1.8 m/s | 1109.6 ± 1.8 m/s | CCO [ethanol] |  |  |  |  |  |  |  | 
 |  |  |  |  |  |  |  |  |  |  |  | O [water] + OCCOCCOCCO | 1.067 ± 0.15 mPa·s | 998.429 ± 3 kg/m3 | 0.8969 ± 0.13 mPa·s | 997.267 ± 3 kg/m3 | 0.8385 ± 0.12 mPa·s | 995.867 ± 3 kg/m3 | 0.7589 ± 0.11 mPa·s | 994.252 ± 3 kg/m3
 |  |  |  |  |  |  |  |  |  |  |  | O [water] + OCCO | 1.067 ± 0.15 mPa·s | 998.429 ± 3 kg/m3 | 0.8969 ± 0.13 mPa·s | 997.267 ± 3 kg/m3 | 0.8385 ± 0.12 mPa·s | 995.867 ± 3 kg/m3 | 0.7589 ± 0.11 mPa·s | 994.252 ± 3 kg/m3
20.61 ± 2.9 mPa·s | 1113.72 ± 3 kg/m3 | 16.22 ± 2.3 mPa·s |  | 13.87 ± 1.9 mPa·s | 1106.71 ± 3 kg/m3 | 11.48 ± 1.6 mPa·s |  | 1666.5 ± 1.8 m/s | 1654.7 ± 1.8 m/s | 1642.9 ± 1.8 m/s | 1631.2 ± 1.8 m/s | OCCO [1,2-ethanediol] |  |  |  |  |  |  |  | 
 |  |  |  |  |  |  |  |  |  |  |  | O [water] + OCCOCCO | 1.067 ± 0.15 mPa·s | 998.429 ± 3 kg/m3 | 0.8969 ± 0.13 mPa·s | 997.267 ± 3 kg/m3 | 0.8385 ± 0.12 mPa·s | 995.867 ± 3 kg/m3 | 0.7589 ± 0.11 mPa·s | 994.252 ± 3 kg/m3

Structure (SMILES) | viscosity ([1]; 293.15 K) | mass density ([1]; 293.15 K) | viscosity ([1]; 298.15 K) | mass density ([1]; 298.15 K) | viscosity ([1]; 303.15 K) | mass density ([1]; 303.15 K) | viscosity ([1]; 308.15 K) | mass density ([1]; 308.15 K) | speed of sound ([1]; 293.15 K) | speed of sound ([1]; 298.15 K) | speed of sound ([1]; 303.15 K) | speed of sound ([1]; 308.15 K) | viscosity ([2]; 293.15 K) | mass density ([2]; 293.15 K) | viscosity ([2]; 298.15 K) | mass density ([2]; 298.15 K) | viscosity ([2]; 303.15 K) | mass density ([2]; 303.15 K) | viscosity ([2]; 308.15 K) | mass density ([2]; 308.15 K)
O [water] | 1.067 ± 0.15 mPa·s | 998.429 ± 3 kg/m3 | 0.8969 ± 0.13 mPa·s | 997.267 ± 3 kg/m3 | 0.8385 ± 0.12 mPa·s | 995.867 ± 3 kg/m3 | 0.7589 ± 0.11 mPa·s | 994.252 ± 3 kg/m3 |  |  |  |  |  |  |  |  |  |  |  | 
OCCOCCO [diethylene glycol] | 35.89 ± 5 mPa·s | 1116.73 ± 3 kg/m3 | 27.67 ± 3.9 mPa·s | 1113.17 ± 3 kg/m3 | 22.48 ± 3.1 mPa·s | 1109.6 ± 3 kg/m3 | 18.27 ± 2.6 mPa·s | 1106.01 ± 3 kg/m3 | 1591 ± 2 m/s | 1579.1 ± 2 m/s | 1567.2 ± 2 m/s | 1555.3 ± 2 m/s |  |  |  |  |  |  |  | 
